Laboratory results from patent publication US8871774B2, “Inhibitors of influenza viruses replication” (priority 2010, dated 2014).
Like-named read-outs stand apart in the source and are kept apart here.

What was measured:
[1] = system: Influenza virus, strain A/PR/8/34; experiment: microbe, parasite or virus in culture; format: cell-based; conditions: unidentified influenza virus, PR/8, read-out: bDNA EC50 (uM)
[2] = system: influenza A virus (A/PR/8/34); experiment: cytopathic effect (CPE) assay, MDCK cell protection by ATP detection; format: cell-based; conditions: Influenza A virus, mean IC50, MDCK cells, A/PR/8/34, 72 hours, 50% cell protection
[3] = Table 1, read-out: Flu, MDCK IC50
[4] = Table 2, read-out: Flu MDCK IC50

Row | Compound | EC50 [1] | IC50 [2, 3] | IC50 [2, 4]
1 | COC(=O)[C@H]1C2CCC(CC2)[C@@H]1Nc1nc(-c2n[nH]c3ncc(Cl)cc23)ncc1F (racemic) [Compound I-2, (+/−)-trans-(2,3)-methyl 3-((2-(5-chloro-1H-pyrazolo[3,4-b]pyridin-3-yl)-5-fluoropyrimidin-4-yl)amino)bicyclo[2.2.2]octane-2-carboxylate] | < 3.3 µM | < 3.3 µM | –
2 | O=C(O)[C@H]1C2CCC(CC2)[C@@H]1Nc1nc(-c2n[nH]c3ncc(Cl)cc23)ncc1F (racemic) [Compound I-6, (+/−) trans-(2S,3S)-3-((2-(5-chloro-1H-pyrazolo[3,4-b]pyridin-3-yl)-5-fluoropyrimidin-4-yl)amino)bicyclo[2.2.2]octane-2-carboxylic acid] | < 3.3 µM | < 3.3 µM | –
3 | O=C(O)[C@H]1C2CCC(CC2)[C@@H]1Nc1nc(-c2n[nH]c3ncccc23)ncc1F (racemic) [Compound I-11, (+/−)-trans-3-((5-fluoro-2-(1H-pyrazolo[3,4-b]pyridin-3-yl)pyrimidin-4-yl)amino)bicyclo-[2.2.2]octane-2-carboxylic acid] | < 3.3 µM | < 3.3 µM | –
4 | C[C@]1(C(=O)O)CCCC[C@@H]1Nc1nc(-c2n[nH]c3ncc(Cl)cc23)ncc1F (racemic) [Compound I-13, (+/−)-2-((2-(5-chloro-1H-pyrazolo[3,4-b]pyridin-3-yl)-5-fluoropyrimidin-4-yl)amino)-1-methylcyclohexanecarboxylic acid] | < 3.3 µM | < 3.3 µM | –
5 | COC(=O)[C@H]1C2CCC(CC2)[C@@H]1Nc1nc(-c2n[nH]c3ncc(F)cc23)ncc1F (racemic) [Compound I-28, (+/−) trans-methyl 3-(5-fluoro-2-(5-fluoro-1H-pyrazolo[3,4-b]pyridin-3-yl)pyrimidin-4-ylamino)bicyclo[2.2.2]octane-2-carboxylate] | < 3.3 µM | < 3.3 µM | –
6 | COC(=O)[C@H]1C2CCC(CC2)[C@@H]1Nc1nc(-c2n[nH]c3ncc(F)cc23)ncc1Cl (racemic) [Compound I-32, (+/−)-trans-(2,3)-methyl 3-((5-chloro-2-(5-fluoro-1H-pyrazolo[3,4-b]pyridin-3-yl)pyrimidin-4-yl)amino)bicyclo[2.2.2]octane-2-carboxylate] | < 3.3 µM | < 3.3 µM | –
7 | O=C(O)[C@H]1C2CCC(CC2)[C@@H]1Nc1nc(-c2n[nH]c3ncc(F)cc23)ncc1Cl (racemic) [Compound I-33, (+/−)-trans-(2,3)-3-((5-chloro-2-(5-fluoro-1H-pyrazolo[3,4-b]pyridin-3-yl)pyrimidin-4-yl)amino)bicyclo[2.2.2]octane-2-carboxylic acid] | < 3.3 µM | < 3.3 µM | –
8 | COC(=O)[C@H]1C2CCCC(CC2)[C@@H]1Nc1nc(-c2n[nH]c3ncc(F)cc23)ncc1F (mixture of isomers) [Compound I-36, (+/−)-methyl 7-(5-fluoro-2-(5-fluoro-1H-pyrazolo[3,4-b]pyridin-3-yl)pyrimidin-4-ylamino)bicyclo[3.2.2]nonane-6-carboxylate] | < 3.3 µM | < 3.3 µM | –
9 | O=C(O)[C@H]1C2CCCC(CC2)[C@@H]1Nc1nc(-c2n[nH]c3ncc(F)cc23)ncc1F (mixture of isomers) [Compound I-37, (+/−)-7-(5-fluoro-2-(5-fluoro-1H-pyrazolo[3,4-b]pyridin-3-yl)pyrimidin-4-ylamino)bicyclo[3.2.2]nonane-6-carboxylic acid] | < 3.3 µM | < 3.3 µM | –
10 | COC(=O)[C@H]1C2CCC(CC2)C1Nc1ccnc(-c2n[nH]c3ncc(F)cc23)n1 (mixture of isomers) [Compound I-42, (+/−)-trans-methyl-3-((2-(5-fluoro-1H-pyrazolo[3,4-b]pyridin-3-yl)pyrimidin-4-yl)amino)bicyclo[2.2.2]octane-2-carboxylate] | < 3.3 µM | – | < 3.3 µM
11 | O=C(O)[C@H]1C2CCC(CC2)C1Nc1ccnc(-c2n[nH]c3ncc(F)cc23)n1 (mixture of isomers) [Compound I-43, (+/−)-trans-3-((2-(5-fluoro-1H-pyrazolo[3,4-b]pyridin-3-yl)pyrimidin-4-yl)amino)bicyclo[2.2.2]octane-2-carboxylic acid] | < 3.3 µM | – | < 3.3 µM
12 | O=C(N[C@@H]1CCC[C@H](Nc2nc(-c3n[nH]c4ncc(Cl)cc34)ncc2F)C1)N1CCOCC1 [Compound I-1, N-((1R,3S)-3-((2-(5-chloro-1H-pyrazolo[3,4-b]pyridin-3-yl)-5-fluoropyrimidin-4-yl)amino)cyclohexyl)morpholine-4-carboxamide] | < 3.3 µM | < 3.3 µM | –
13 | O=C(N[C@@H]1CCC[C@H](Nc2nc(-c3n[nH]c4ncc(Cl)cc34)ncc2F)C1)N1CCCC1 [Compound I-3, N-((1R,3S)-3-((2-(5-chloro-1H-pyrazolo[3,4-b]pyridin-3-yl)-5-fluoropyrimidin-4-yl)amino)cyclohexyl)pyrrolidine-1-carboxamide] | < 3.3 µM | < 3.3 µM | –
14 | O=C(N[C@@H]1CCC[C@H](Nc2nc(-c3n[nH]c4ncc(Cl)cc34)ncc2F)C1)N1CCC[C@H]1CO [Compound I-4, (S)—N-((1R,3S)-3-((2-(5-chloro-1H-pyrazolo[3,4-b]pyridin-3-yl)-5-fluoropyrimidin-4-yl)amino)cyclohexyl)-2-(hydroxymethyl)pyrrolidine-1-carboxamide] | < 3.3 µM | < 3.3 µM | –
15 | COC1CCN(C(=O)N[C@@H]2CCC[C@H](Nc3nc(-c4n[nH]c5ncc(Cl)cc45)ncc3F)C2)C1 (stereo partly drawn) [Compound I-5, N-((1R,3S)-3-((2-(5-chloro-1H-pyrazolo[3,4-b]pyridin-3-yl)-5-fluoropyrimidin-4-yl)amino)cyclohexyl)-3-methoxypyrrolidine-1-carboxamide] | < 3.3 µM | < 3.3 µM | –
16 | O=C(N[C@@H]1CCC[C@H](Nc2nc(-c3n[nH]c4ncccc34)ncc2F)C1)N1CCOCC1 [Compound I-7] | < 3.3 µM | < 3.3 µM | –
17 | O=C(O)[C@H]1C2CCC(CC2)[C@@H]1Nc1nc(-c2n[nH]c3ncc(Cl)cc23)ncc1F [Compound I-9, (2S,3 S)-3-((2-(5-chloro-1H-pyrazolo[3,4-b]pyridin-3-yl)-5-fluoropyrimidin-4-yl)-amino)bicyclo[2.2.2]octane-2-carboxylic acid] | < 3.3 µM | < 3.3 µM | –
18 | O=C(O)[C@@H]1C2CCC(CC2)[C@H]1Nc1nc(-c2n[nH]c3ncc(Cl)cc23)ncc1F [Compound I-10, (2R,3R)-3-((2-(5-chloro-1H-pyrazolo[3,4-b]pyridin-3-yl)-5-fluoropyrimidin-4-yl)-amino)bicyclo[2.2.2]octane-2-carboxylic acid] | < 3.3 µM | < 3.3 µM | –
19 | O=C(N[C@@H]1CCC[C@H](Nc2nc(-c3n[nH]c4ncccc34)ncc2F)C1)N1CCCC1 [Compound I-12, N-((1R,3S)-3-((5-fluoro-2-(1H-pyrazolo[3,4-b]pyridin-3-yl)pyrimidin-4-yl)amino)cyclohexyl)pyrrolidine-1-carboxamide] | < 3.3 µM | < 3.3 µM | –
20 | C[C@H]1CCCN1C(=O)N[C@@H]1CCC[C@H](Nc2nc(-c3n[nH]c4ncccc34)ncc2F)C1 [Compound I-15, (S)—N-((1R,3S)-3-((5-fluoro-2-(1H-pyrazolo[3,4-b]pyridin-3-yl)pyrimidin-4-yl)-amino)cyclohexyl)-2-methylpyrrolidine-1-carboxamide] | < 3.3 µM | < 3.3 µM | –
21 | O=C(N[C@@H]1CCC[C@H](Nc2nc(-c3n[nH]c4ncccc34)ncc2F)C1)N1CCC(F)(F)C1 [Compound I-16, 3,3-difluoro-N-((1R,3S)-3-((5-fluoro-2-(1H-pyrazolo[3,4-b]pyridin-3-yl)pyrimidin-4-yl)amino)cyclohexyl)pyrrolidine-1-carboxamide] | < 3.3 µM | < 3.3 µM | –
22 | O=C(N[C@@H]1CCC[C@H](Nc2nc(-c3n[nH]c4ncccc34)ncc2F)C1)N1CC[C@H](F)C1 [Compound I-17, (S)-3-fluoro-N-((1R,3S)-3-((5-fluoro-2-(1H-pyrazolo[3,4-b]pyridin-3-yl)pyrimidin-4-yl)amino)cyclohexyl)pyrrolidine-1-carboxamide] | < 3.3 µM | < 3.3 µM | –
23 | C[C@@H]1CCCN1C(=O)N[C@@H]1CCC[C@H](Nc2nc(-c3n[nH]c4ncccc34)ncc2F)C1 [Compound I-18, (R)—N-((1R,3S)-3-((5-fluoro-2-(1H-pyrazolo[3,4-b]pyridin-3-yl)pyrimidin-4-yl)amino)cyclohexyl)-2-methylpyrrolidine-1-carboxamide] | < 3.3 µM | < 3.3 µM | –
24 | O=C(N[C@@H]1CCC[C@H](Nc2nc(-c3n[nH]c4ncccc34)ncc2F)C1)N1CC[C@@H](F)C1 [Compound I-19, (R)-3-fluoro-N-((1R,3S)-3-((5-fluoro-2-(1H-pyrazolo[3,4-b]pyridin-3-yl)pyrimidin-4-yl)amino)cyclohexyl)pyrrolidine-1-carboxamide] | < 3.3 µM | < 3.3 µM | –
25 | O=C(N[C@@H]1CCC[C@H](Nc2nc(-c3n[nH]c4ncccc34)ncc2F)C1)N1CCC(F)CC1 [Compound I-20] | < 3.3 µM | < 3.3 µM | –
26 | O=C(N[C@@H]1CCC[C@H](Nc2nc(-c3n[nH]c4ncc(F)cc34)ncc2F)C1)N1CCOCC1 [Compound I-21, N-((1R,3S)-3-((5-fluoro-2-(5-fluoro-1H-pyrazolo[3,4-b]pyridin-3-yl)pyrimidin-4-yl)amino)cyclohexyl)morpholine-4-carboxamide] | < 3.3 µM | < 3.3 µM | –
27 | O=C(N[C@@H]1CCC[C@H](Nc2nc(-c3n[nH]c4ncccc34)ncc2F)C1)N1CCCCC1 [Compound I-22, N-((1R,3S)-3-((5-fluoro-2-(1H-pyrazolo[3,4-b]pyridin-3-yl)pyrimidin-4-yl)amino)-cyclohexyl)piperidine-1-carboxamide] | < 3.3 µM | < 3.3 µM | –
28 | O=C(N[C@@H]1CCC[C@H](Nc2nc(-c3n[nH]c4ncc(F)cc34)ncc2F)C1)N1CC[C@@H](F)C1 [Compound I-23, (R)-3-fluoro-N-((1R,3S)-3-((5-fluoro-2-(5-fluoro-1H-pyrazolo[3,4-b]pyridin-3-yl)pyrimidin-4-yl)amino)cyclohexyl)pyrrolidine-1-carboxamide] | < 3.3 µM | < 3.3 µM | –
